Data: patent publication US12275685B2, “Oligo-benzamide analogs and their use in cancer treatment” (Board of Regents, The University of Texas System, priority 2018, dated 2025)
“Also recorded” adds a separate entry of the source.

Assays:
[1] = system: nuclear receptor (NR) interaction with its coregulator proteins; assay: Inhibition of nuclear receptor-coregulator interaction in cancer cells; format: cell-based
Protocol: The present oligo-benzamide analogs are extremely potent and effective on various cancer cells including breast cancer, ovarian cancer, and pancreatic cancer. These compounds have a unique mode of action compared to existing therapeutic treatments to these diseases. The compounds are very potent with IC50 values of 10-50 nM for growth inhibition. TK41 is a tris-benzamide analog and it inhibits nuclear receptor (NR) interaction with its coregulator proteins in cancer cells with high potency (IC50 is approximately 100 nM; FIGS. 1-4).

TNBC PDX tumors = assay: TNBC patient derived xenografts (PDX); format: in vivo, mice; settings: 10 mg/kg/day oral
Protocol: FIGS. 7A-7C show effect of TK41 in triple negative breast cancer in patient derived xenografts. TNBC patient derived xenografts (n=6) were established in nude mice and treated with vehicle (circle markers) or 10 mg/kg/day/oral ERX-41 (i.e., TK41; square markers).
FIGS. 32A-C show established breast PDX tumors treated either with vehicle (circles) or ERX-41 (squares). Tumor volume is graphed (left), distribution of tumor weights at necropsy (middle panel). *p<0.05; […].
FIGS. 35A-P: ERX-41 is potent against TNBC in vivo. (FIG. 35A) Following establishment of subcutaneous MDA-MB-231 xenograft tumors (200 mm^3), 10 mg/kg single dose ERX-41 was administered either by oral or intraperitoneal route. The tumor was harvested 0, 0, 5, 1, 5, 3, 6 and 24 h after drug administration and the drug levels assayed by LC-MS/MS and graphed. (FIGS. 35B-E) Following establishment of MDA-MB-231 xenografts in mammary fat pad in vivo (100 mm^3 size), daily administration of 10 mg/kg ERX-41 or vehicle control (N=8 each group) was initiated. Tumor volumes were measured using digital calipers and graphed (FIG. 35B). Tumor weights (FIG. 35C), body weights (FIG. 35D) and extirpated tumors (FIG. 35E) at end of study are also shown. […] Tumor volumes were measured using digital calipers and graphed (FIG. 35F) along with tumor weights (FIG. 35G) and body weights (FIG. 35H). […]

TNBC cells = assay: De novo protein synthesis, puromycin labeled nascent proteins; format: cell-based; settings: 4 h and 16 h
Description: Total protein is shown on right with coomassie blue staining.
The basal level of expression of endoplasmic reticulum stress and unfolded protein response correlates with TK41 activity (FIG. 28). Modulation of the level of these stress proteins affects the activity of TK41. Thus, the basal level of expression of endoplasmic reticulum stress and unfolded protein response proteins may serve as a biomarker to predict response to TK41. […] Without wishing to be bound by any particular theory, the mechanism of action of TK41 may operate comprise targeting either ER or TLX and inducing endoplasmic reticulum stress, subsequent apoptosis, and blocking autophagic fusion (FIG. 30).

[2] = system: SUM-159 cells with LIPA KO; assay: Live cell imaging of SUM-159 with LIPA KO; format: cell-based; settings: 1 μM
Description: FIGS. 37A-J: The molecular target of ERX-41 in TNBC is LIPA. […] (FIG. 37B) Knockout clones of LIPA, ACACA, TMEM208, SOAT1 and ARID1A were generated in MDA-MB-231 cells and evaluated for response to ERX-41 using doseresponse curves using CellTiter-Glo assays in vitro. (FIGS. 37C-D) Effect of knockout of LIPA in SUM-159 (FIG. 37C) and MDA-MB436 (FIG. 37D) on dose response curve to ERX-41 using CellTiter-Glo assays in vitro. (FIGS. 37E-F) Dose response curves of SUM-159 parental cells and clones with LIPA KO to thapsigargin (FIG. 37E) and paclitaxel (FIG. 37F). (FIGS. 37G-H) Live cell imaging studies with SYTOX Green to examine ability of 1 μM ERX-41 to induce cell death in parental SUM-159 and SUM-159 clones with LIPA KO, with quantitation (FIG. 37G) and time-lapsed photomicrographs at 0 h and 30 h ((FIG. 37H). (FIGS. 37I-J) SCID mice were implanted with either parental SUM-159 or SUM-159 clones with LIPA KO (n=6, each group) and tumors were allowed to establish (150 mm^3). Following daily intraperitoneal administration of 10 mg/kg ERX-41, tumor sizes were measured and graphed (FIG. 37I), along with mice body weights (FIG. 37J). *p<0.05. **p<0.01; ***p<0.001.
The molecular target of ERX-41 in TNBC is LIPA. […] Knockout clones of LIPA, SLC5A3, SMAP2, TMEM208, SOAT1 and ARID1A were generated in multiple TNBC cells and evaluated for response to ERX-41.

Q: What does the source list for CC(C)COc1cc(C(=O)Nc2ccc(C(=O)N[C@H]3CC[C@H](C)CC3)cc2OCC(C)C)ccc1NC(=O)c1ccc([N+](=O)[O-])c(OCCO)c1 [TK41]?
A: IC50 [1]: ~100 nM; growth of TNBC PDX tumors (TNBC PDX tumors): significantly decreased the growth; growth of TNBC PDX tumors (TNBC PDX tumors; listed as ERX-41): significantly decreased the rates of growth; also recorded: has activity against TNBC PDX tumors; de novo protein synthesis (TNBC cells): shuts down de novo protein synthesis; de novo protein synthesis (TNBC cells; listed as TK-41): decreases global new protein synthesis; cell death after KO of LIPA [2]: dramatic decrease in cell death
